Several values for one entry are separate records, joined by “and”; a condition that tells them apart may be missing. Identical values can stand only once.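 Following 48 hours of exposure in 96-well plates, responses at five concentrations were used to interpolate endpoints linearly. The concentration for 50% growth inhibition is given as GI50. Definition used: TGI = concentration required for complete inhibition of growth.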
Legend:
Assay in all cases: NCI tumour cell line growth inhibition, 48 h
MDA-N = system: MDA-N
RXF-631 renal = system: RXF-631 renal
M19-MEL melanoma = system: M19-MEL melanoma
LXFL 529 NSCLC = system: LXFL 529 NSCLC
SNB-78 CNS = system: SNB-78 CNS
KM20L2 colon = system: KM20L2 colon
HOP-18 NSCLC = system: HOP-18 NSCLC
DLD-1 colon = system: DLD-1 colon
XF 498 CNS = system: XF 498 CNS

SMILES | TGI (MDA-N) | TGI (M19-MEL melanoma) | TGI (LXFL 529 NSCLC) | TGI (SNB-78 CNS) [µM] | TGI (KM20L2 colon) | TGI (HOP-18 NSCLC) | TGI (DLD-1 colon) | TGI (XF 498 CNS) [µM] | also measured
C[C@]12CC[C@H](O)CC1=CC[C@@H]1C2CC[C@]2(C)c3nn(-c4ccc(F)cc4)nc3CC12 (stereo not given in full) | > 100 µM |  |  |  |  |  |  |  | 
COC1/C(=C\C(=O)OC(C)(C)C)c2ccccc2N1C(C)=O (stereo not given) |  | > 100 µM | > 100 µM | > 100 | > 100 µM | > 100 µM | > 100 µM | > 100 | TGI (RXF-631 renal): > 100 µM
CC1(CO)OC1COCc1ccccc1 (stereo not given) |  |  | > 100 µM | > 100 | > 100 µM |  | > 100 µM | > 100 | TGI (RXF-631 renal): > 100 µM
Cc1nc2c(=O)[nH]c(=O)n(C)c2[nH]c1=O |  | > 100 µM | > 100 µM |  | > 100 µM |  | > 100 µM |  | 
O=C1C(=Cc2ccco2)C(=O)C2CCCCC12 (stereo not given) | > 100 µM |  |  |  |  |  |  |  | 
O=C(O)c1c2c(c(C(=O)O)c3ccccc13)-c1ccccc1-2 |  | > 100 µM | > 100 µM | > 100 | > 100 µM | 83.9 µM | > 100 µM | > 100 | 
OC(C1=C/C(=C\c2ccncc2)c2ccccc21)c1ccncc1 (stereo not given) | 30.4 µM |  |  |  |  |  |  |  | 
CC(=O)OCC1OC(OC2CC3C(C)(C)C(OC(C)=O)CC[C@]3(C)C3CCC45CC4(CC[C@H]5C(C)CC(O)[C@@H](O)C(C)(C)O)[C@]23C)C(O)C(O)C1O (stereo not given in full) |  | 13.7 µM and 12.7 µM | 11.3 µM and 16.2 µM |  | 14.4 µM and 21.6 µM | 15 µM and 17.3 µM | 13.7 µM and 23.2 µM | 33.9 | GI50 (M19-MEL melanoma): 3.18 µM; GI50 (LXFL 529 NSCLC): 4.65 µM; GI50 (HOP-18 NSCLC): 5.43 µM; GI50 (DLD-1 colon): 10.4 µM
Cc1cccc(C)c1NC(=O)/C(Cl)=C(/Cl)C(=O)O | 36.8 µM | 43.7 µM | 15.2 µM | > 74.6 | 20.8 µM | 38.2 µM | 17.8 µM | 28.6 | 
COc1cc2c(c(OC)c1OC)-c1ccc(SC)c(=O)cc1[C@@H](NC(=O)c1ccc(OC(C)=O)cc1)CC2 |  | > 100 µM |  |  | 0.0358 µM |  | 28.8 µM | 0.0597 | TGI (RXF-631 renal): 18.1 µM
NCCCN(CCCN)CCCNCc1c2ccccc2c(CNCCCN(CCCN)CCCN)c2ccccc12 |  | 20.4 µM | 22.6 µM | 79.9 | 47.8 µM | 20.7 µM | 28.8 µM | 38.1 | TGI (RXF-631 renal): 43.7 µM
COc1ccc(C2S/C(=C\c3cc(OC)c(OC)c(OC)c3)C(=O)N2NC(=O)Cc2ccccc2)cc1 (stereo not given) |  | > 100 µM | > 100 µM |  |  | > 100 µM | > 100 µM |  | 
COC1/C=C\C=C(/C)C(=O)Nc2cc3nc4ccc(Br)cc4oc-3c(c2=O)CC(C)CC(OC)C(O)C(C)/C=C(\C)C1OC(N)=O (stereo not given) | 1.27 µM | 2.26 µM | 9.42 µM | 30 | 3.65 µM | 17.3 µM | 8.29 µM | 0.466 | GI50 (MDA-N): 0.0124 µM
COc1ccccc1C1=C2C(=O)N(C)C(c3ccccc3OC)=C2C(=O)N1C | > 100 µM |  |  |  |  |  |  |  | 
O=C1C(Cl)=C(Oc2ccc([N+](=O)[O-])cc2)C(=O)c2c(O)ccc(O)c21 | > 31.6 µM |  |  |  |  |  |  |  | 
O=C(/C=C/C=C/c1ccccc1)CCc1ccccc1 | > 100 µM |  |  |  |  |  |  |  | 
O=C(CNC(=O)OCc1ccccc1)Oc1ccccc1 |  | > 100 µM | > 100 µM | > 100 | > 100 µM | > 100 µM | > 100 µM | > 100 | 
COc1ccc(C(=O)C(c2ccc(OC)cc2)C2(O)C(=O)Nc3c(C)cc(Cl)cc32)cc1 (stereo not given) |  | 44.2 µM | > 100 µM | > 100 | > 100 µM |  | > 100 µM |  | TGI (RXF-631 renal): > 100 µM
CCOC(=O)/C(=C\c1ccc(OCc2ccccc2)c(OC)c1)C(=O)c1ccccc1 |  | 50 µM |  | 76.8 | 34.3 µM |  |  | 32.3 | 
O=C1/C(=C/c2ccc(O)c([N+](=O)[O-])c2)CCC/C1=C\c1ccc(O)c([N+](=O)[O-])c1 | 19.9 µM and > 100 µM |  |  |  |  |  |  |  | GI50 (MDA-N): 25.9 µM
C=CC[C@H]1C[C@@]2(C)OC[C@H](C(C)C)N2C1=O |  | > 100 µM |  | > 100 | > 100 µM | > 100 µM |  | > 100 | 
FC(F)(F)c1cccc(COCCN2CCN(Cc3cccc(C(F)(F)F)c3)CC2)c1 | 34.4 µM |  |  |  |  |  |  |  | 
CC1Cc2c(N)nc(NN)nc2NC1=O (stereo not given) |  | > 100 µM |  |  | > 100 µM | > 100 µM | > 100 µM | > 100 | 

SMILES | TGI (MDA-N) | TGI (M19-MEL melanoma) | TGI (LXFL 529 NSCLC) | TGI (SNB-78 CNS) [µM] | TGI (KM20L2 colon) | TGI (HOP-18 NSCLC) | TGI (DLD-1 colon) | TGI (XF 498 CNS) [µM] | also measured
c1ccc(C(=NNc2nc3ccccc3o2)c2ccccn2)nc1 | 25.9 µM |  |  |  |  |  |  |  | 
OCC(O)C(O)C(O)C1SC(c2ccccc2)=NN1c1ccccc1 (stereo not given) | > 100 µM | > 100 µM | > 100 µM | > 96.4 | > 100 µM | > 100 µM | > 100 µM | > 78.1 | TGI (RXF-631 renal): > 100 µM
S=c1nc(Oc2ccc(Cl)c(Cl)c2)[nH]c(=S)[nH]1 | > 100 µM | 56.5 µM | > 100 µM | > 100 | > 100 µM | > 100 µM | 88.4 µM | 65.6 | TGI (RXF-631 renal): 32.8 µM
Cc1ncc([N+](=O)[O-])n1CCNS(=O)(=O)CCCn1ccnc1[N+](=O)[O-] | > 100 µM |  |  |  |  |  |  |  | 
CN(C)CC(/C(Cc1ccccc1)=N\NC(=O)c1ccncc1)c1ccccc1 (stereo not given) |  | > 100 µM | > 100 µM |  | 92.3 µM |  | > 100 µM | > 100 | TGI (RXF-631 renal): > 100 µM
O=C1CCCCCCCCCCC(=O)C2CCOCCOCCOCCC1Cc1cccc(n1)C2 |  | > 100 µM | > 100 µM | > 100 | > 100 µM |  | > 100 µM | > 100 | TGI (RXF-631 renal): > 100 µM
Cc1cc(O)c(C(=O)CC2(O)C(=O)Nc3c(Cl)cc(Cl)cc32)c(=O)o1 (stereo not given) |  | > 100 µM | > 100 µM | > 100 | > 100 µM | > 100 µM | > 100 µM | > 100 | TGI (RXF-631 renal): > 100 µM
c1nc2cscc2c2cscc12 |  | > 100 µM | > 100 µM | > 100 |  |  |  | > 100 | 
c1cc2c(cc1C(N1CCNCC1)N1CCNCC1)OCO2 | > 100 µM |  |  |  |  |  |  |  | 
Clc1ccc(-n2nnc(C3=NCCCN3)c2-c2ccccc2)cc1 |  | > 100 µM | > 100 µM | > 100 | > 100 µM | > 100 µM | > 100 µM | > 100 | 
COC(=O)/C=C(C)/C=C/c1cc(C(C)=O)c(C)o1 |  |  | > 100 µM | > 100 | > 100 µM | > 100 µM | > 100 µM | > 100 | 
Cc1ccccc1C(=O)C#Cc1cn(C2CC(O)C(CO)O2)c(=O)[nH]c1=O (stereo not given) | > 100 µM |  |  |  |  |  |  |  | 
N/N=C(\CC1OC(=O)c2ccccc21)c1ccco1 (stereo not given) |  | > 100 µM | > 100 µM |  | > 100 µM | 0.343 µM | > 100 µM |  | 
CC(=O)[CH-]C(=O)c1ccccc1.CC(=O)[CH-]C(=O)c1ccccc1.CC(=O)[CH-]C(=O)c1ccccc1.[Tl+3] |  | > 100 µM | > 100 µM |  | > 100 µM | > 100 µM | > 100 µM |  | GI50 (M19-MEL melanoma): 38 µM; GI50 (LXFL 529 NSCLC): 56.2 µM; GI50 (KM20L2 colon): 45.6 µM; GI50 (HOP-18 NSCLC): > 100 µM; GI50 (DLD-1 colon): 22.2 µM
CN(C)CCCN=C(N)N | > 100 µM |  |  |  |  |  |  |  | 
Cn1nc(-c2ccccc2)c(N=[N+]=[N-])cc1=O |  | > 100 µM | > 100 µM |  | > 100 µM |  |  | > 100 | 
S=c1[nH]c(=S)c2sc(=S)n(-c3ccccc3)c2[nH]1 |  | > 100 µM | > 100 µM | > 100 | > 100 µM | > 100 µM | > 100 µM | > 100 | 
O=[N+]([O-])c1ccc(Sc2c3ccccc3nc3ccccc23)cc1 |  | > 100 µM | > 100 µM | > 100 | > 100 µM | > 100 µM | > 100 µM | > 100 | TGI (RXF-631 renal): > 100 µM
CC1(C)COCN1COC1CCCCC1 | > 100 µM |  |  |  |  |  |  |  | 
CC(=O)OCSc1ncnc2c1ncn2CN1CCOCC1 |  | > 100 µM | > 100 µM | > 100 | > 100 µM | > 100 µM | > 100 µM |  | 
CC(C)=CC(=O)Oc1ccc([N+](=O)[O-])cc1 |  | > 100 µM | > 100 µM | > 100 | > 100 µM | > 100 µM | > 100 µM | > 100 | 
N#CCc1ccc(C(C#N)/C(CCCC(=O)Nc2cccc([N+](=O)[O-])c2)=N\NC(=O)NN)cc1 (stereo not given) |  | > 100 µM | > 100 µM | > 100 | > 100 µM | > 100 µM | > 100 µM |  | 

— PubChem BioAssay (NCI)
